Results from publication PMC10111164, “Artemis inhibition as a therapeutic strategy for acute lymphoblastic leukemia” (Frontiers in Cell and Developmental Biology, 2023).

Assays:
[1] = test system: patient-derived B-ALL cells (BLQ5, LAX56 and LAX7R); assay: Viability of B-ALL cells by annexin V/DAPI flow cytometry, day 3; type: cell-based, human; settings: all three B-ALL cells (BLQ5, LAX56, LAX7R), 3 days
Description: (§1) Lentivirally green fluorescence protein (GFP) labeled patient-derived B-ALL cells (LAX56, BLQ5, LAX7R) or mature B cell lines 3301015 and 5680001 were plated on irradiated murine stromal OP9 cells and treated with four compounds optimized for Artemis inhibition (827171, 827032, 826941, 825226) (provided by Curia Global Inc., as part of the NCI NExT Program). These compounds ranged in KD binding affinity to Artemis from 20 to 150 nM. […] Proliferation was determined by measuring the green fluorescence intensity per image (9 images were captured per well) by Incucyte every 8 h for 3 days. Raw values were normalized to the zero-time DMSO control. On day 3, viability of the treated cells was determined by annexin V/DAPI staining via flow cytometry.
On day three, primary B-ALL cells were collected and used for flow cytometry analysis with PE Annexin V and DAPI to measure % viability (PE Annexin V-/DAPI-). The statistical analysis of viability differences is compared to DMSO control: ns: non-significant; *p < 0.05; **p < 0.001; ***p < 0.0001, one-way ANOVA.

[2] = test system: Primary patient-derived B-ALL cells (BLQ5, LAX56, and LAX7R); assay: Proliferation of GFP-labeled B-ALL cells on OP9 cells (Incucyte green fluorescence); type: cell-based, human
Description: as §1
Based on these viability studies, we next tested the compounds for their effect on proliferation. […] Ideally, normal B-cell lines would continue to proliferate upon Artemis inhibition and only B-ALL cell lines would be inhibited due to chromosome breaks. […] Increasing green fluorescence intensity is indicative of proliferation as measured by Incucyte every 8 h. […]
Primary B-ALL cells (BLQ5, LAX56, and LAX7R) were transduced with GFP, and 100,000 cells were plated in 24-well plates seeded with irradiated OP9 cells. […] Green fluorescence intensity was measured by Incucyte every 8 h. […]

[3] = test system: Mature B cell lines (3301015 and 5680001); assay: Proliferation of GFP-labeled mature B cell lines on OP9 cells (Incucyte green fluorescence); type: cell-based, human
Description: as §1
Based on these viability studies, we next tested the compounds for their effect on proliferation. […] Ideally, normal B-cell lines would continue to proliferate upon Artemis inhibition and only B-ALL cell lines would be inhibited due to chromosome breaks. Primary patient-derived B-ALL cells (BLQ5, LAX56, and LAX7R) were transduced with GFP and 100,000 cells were plated in 24-well plates seeded with irradiated OP9 cells. Increasing green fluorescence intensity is indicative of proliferation as measured by Incucyte every 8 h. […] The mature B cell line proliferation is slow enough that it appears relatively flat in the proliferation assays, but the cells do increase in number (Supplementary Figure S2). Compared to B-ALL cells which grow as single cells (Supplementary Figure S3A–F), the mature B-cell lines grow in clusters and the measurement of total intensity per image is a potential caveat and may not capture this growth (Supplementary Figure S3G–J).
Mature B cell lines (3301015 and 5680001) were transduced with GFP, and 100,000 cells were plated in 24-well plates seeded with irradiated OP9 cells. […] Green fluorescence intensity was measured by Incucyte every 8 h. Raw values were normalized to the 0 h DMSO control. The dashed lines indicate the mean of the final time point measurements of the DMSO control for each mature B cell line.

[4] = test system: Normal mature B cell lines 3301015 and 5680001; assay: Viability of normal mature B cell lines by annexin V/DAPI flow cytometry, day 3; type: cell-based, human; settings: one or both B-cell lines, 1–20 μM, 3 days
Description: Normal mature human B cell lines, immortalized lymphoblastoid cell lines 3301015 and 5680001, were generated using EBV-transformation of peripheral blood from patients with no hematopoietic abnormalities.
as §1
FIGURE 4 Artemis inhibitors and DNA-PK inhibitors effect on viability of normal mature B cell lines. […] On day three, mature B cells were collected and used for flow cytometry analysis with PE Annexin V and DAPI to measure % viability (PE Annexin V-/DAPI-). The % viability (Ann V-/DAPI-) is depicted. […]

[5] = target: T1, purified full-length human Artemis with DNA-PKcs (Homo sapiens, UniProt Q96SD1); assay: Biochemical Artemis catalytic activity assay (FAM hairpin DNA cleavage, fluorescence)
T1 construct: Artemis activity assay was developed using full length Artemis with DNA-PKcs; made in house
T1 sequence (Q96SD1 whole entry): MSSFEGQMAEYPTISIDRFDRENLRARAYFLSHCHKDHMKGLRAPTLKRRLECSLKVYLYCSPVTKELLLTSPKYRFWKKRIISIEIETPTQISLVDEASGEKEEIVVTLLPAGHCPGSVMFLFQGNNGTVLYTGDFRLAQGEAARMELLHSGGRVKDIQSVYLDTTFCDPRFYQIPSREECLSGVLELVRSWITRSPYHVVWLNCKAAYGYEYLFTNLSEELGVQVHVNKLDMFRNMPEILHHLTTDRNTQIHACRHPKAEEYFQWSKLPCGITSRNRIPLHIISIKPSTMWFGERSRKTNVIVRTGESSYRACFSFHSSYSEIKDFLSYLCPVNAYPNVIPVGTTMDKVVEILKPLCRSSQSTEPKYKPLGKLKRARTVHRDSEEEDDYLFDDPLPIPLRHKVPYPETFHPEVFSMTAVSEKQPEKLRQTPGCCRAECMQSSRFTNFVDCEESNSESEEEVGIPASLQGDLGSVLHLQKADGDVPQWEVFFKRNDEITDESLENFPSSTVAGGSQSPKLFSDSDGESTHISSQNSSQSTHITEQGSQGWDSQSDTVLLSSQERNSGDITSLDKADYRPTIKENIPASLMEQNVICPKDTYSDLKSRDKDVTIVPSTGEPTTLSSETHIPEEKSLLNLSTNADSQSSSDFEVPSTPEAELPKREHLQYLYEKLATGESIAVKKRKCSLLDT
T1 sequence (P78527 whole entry partner): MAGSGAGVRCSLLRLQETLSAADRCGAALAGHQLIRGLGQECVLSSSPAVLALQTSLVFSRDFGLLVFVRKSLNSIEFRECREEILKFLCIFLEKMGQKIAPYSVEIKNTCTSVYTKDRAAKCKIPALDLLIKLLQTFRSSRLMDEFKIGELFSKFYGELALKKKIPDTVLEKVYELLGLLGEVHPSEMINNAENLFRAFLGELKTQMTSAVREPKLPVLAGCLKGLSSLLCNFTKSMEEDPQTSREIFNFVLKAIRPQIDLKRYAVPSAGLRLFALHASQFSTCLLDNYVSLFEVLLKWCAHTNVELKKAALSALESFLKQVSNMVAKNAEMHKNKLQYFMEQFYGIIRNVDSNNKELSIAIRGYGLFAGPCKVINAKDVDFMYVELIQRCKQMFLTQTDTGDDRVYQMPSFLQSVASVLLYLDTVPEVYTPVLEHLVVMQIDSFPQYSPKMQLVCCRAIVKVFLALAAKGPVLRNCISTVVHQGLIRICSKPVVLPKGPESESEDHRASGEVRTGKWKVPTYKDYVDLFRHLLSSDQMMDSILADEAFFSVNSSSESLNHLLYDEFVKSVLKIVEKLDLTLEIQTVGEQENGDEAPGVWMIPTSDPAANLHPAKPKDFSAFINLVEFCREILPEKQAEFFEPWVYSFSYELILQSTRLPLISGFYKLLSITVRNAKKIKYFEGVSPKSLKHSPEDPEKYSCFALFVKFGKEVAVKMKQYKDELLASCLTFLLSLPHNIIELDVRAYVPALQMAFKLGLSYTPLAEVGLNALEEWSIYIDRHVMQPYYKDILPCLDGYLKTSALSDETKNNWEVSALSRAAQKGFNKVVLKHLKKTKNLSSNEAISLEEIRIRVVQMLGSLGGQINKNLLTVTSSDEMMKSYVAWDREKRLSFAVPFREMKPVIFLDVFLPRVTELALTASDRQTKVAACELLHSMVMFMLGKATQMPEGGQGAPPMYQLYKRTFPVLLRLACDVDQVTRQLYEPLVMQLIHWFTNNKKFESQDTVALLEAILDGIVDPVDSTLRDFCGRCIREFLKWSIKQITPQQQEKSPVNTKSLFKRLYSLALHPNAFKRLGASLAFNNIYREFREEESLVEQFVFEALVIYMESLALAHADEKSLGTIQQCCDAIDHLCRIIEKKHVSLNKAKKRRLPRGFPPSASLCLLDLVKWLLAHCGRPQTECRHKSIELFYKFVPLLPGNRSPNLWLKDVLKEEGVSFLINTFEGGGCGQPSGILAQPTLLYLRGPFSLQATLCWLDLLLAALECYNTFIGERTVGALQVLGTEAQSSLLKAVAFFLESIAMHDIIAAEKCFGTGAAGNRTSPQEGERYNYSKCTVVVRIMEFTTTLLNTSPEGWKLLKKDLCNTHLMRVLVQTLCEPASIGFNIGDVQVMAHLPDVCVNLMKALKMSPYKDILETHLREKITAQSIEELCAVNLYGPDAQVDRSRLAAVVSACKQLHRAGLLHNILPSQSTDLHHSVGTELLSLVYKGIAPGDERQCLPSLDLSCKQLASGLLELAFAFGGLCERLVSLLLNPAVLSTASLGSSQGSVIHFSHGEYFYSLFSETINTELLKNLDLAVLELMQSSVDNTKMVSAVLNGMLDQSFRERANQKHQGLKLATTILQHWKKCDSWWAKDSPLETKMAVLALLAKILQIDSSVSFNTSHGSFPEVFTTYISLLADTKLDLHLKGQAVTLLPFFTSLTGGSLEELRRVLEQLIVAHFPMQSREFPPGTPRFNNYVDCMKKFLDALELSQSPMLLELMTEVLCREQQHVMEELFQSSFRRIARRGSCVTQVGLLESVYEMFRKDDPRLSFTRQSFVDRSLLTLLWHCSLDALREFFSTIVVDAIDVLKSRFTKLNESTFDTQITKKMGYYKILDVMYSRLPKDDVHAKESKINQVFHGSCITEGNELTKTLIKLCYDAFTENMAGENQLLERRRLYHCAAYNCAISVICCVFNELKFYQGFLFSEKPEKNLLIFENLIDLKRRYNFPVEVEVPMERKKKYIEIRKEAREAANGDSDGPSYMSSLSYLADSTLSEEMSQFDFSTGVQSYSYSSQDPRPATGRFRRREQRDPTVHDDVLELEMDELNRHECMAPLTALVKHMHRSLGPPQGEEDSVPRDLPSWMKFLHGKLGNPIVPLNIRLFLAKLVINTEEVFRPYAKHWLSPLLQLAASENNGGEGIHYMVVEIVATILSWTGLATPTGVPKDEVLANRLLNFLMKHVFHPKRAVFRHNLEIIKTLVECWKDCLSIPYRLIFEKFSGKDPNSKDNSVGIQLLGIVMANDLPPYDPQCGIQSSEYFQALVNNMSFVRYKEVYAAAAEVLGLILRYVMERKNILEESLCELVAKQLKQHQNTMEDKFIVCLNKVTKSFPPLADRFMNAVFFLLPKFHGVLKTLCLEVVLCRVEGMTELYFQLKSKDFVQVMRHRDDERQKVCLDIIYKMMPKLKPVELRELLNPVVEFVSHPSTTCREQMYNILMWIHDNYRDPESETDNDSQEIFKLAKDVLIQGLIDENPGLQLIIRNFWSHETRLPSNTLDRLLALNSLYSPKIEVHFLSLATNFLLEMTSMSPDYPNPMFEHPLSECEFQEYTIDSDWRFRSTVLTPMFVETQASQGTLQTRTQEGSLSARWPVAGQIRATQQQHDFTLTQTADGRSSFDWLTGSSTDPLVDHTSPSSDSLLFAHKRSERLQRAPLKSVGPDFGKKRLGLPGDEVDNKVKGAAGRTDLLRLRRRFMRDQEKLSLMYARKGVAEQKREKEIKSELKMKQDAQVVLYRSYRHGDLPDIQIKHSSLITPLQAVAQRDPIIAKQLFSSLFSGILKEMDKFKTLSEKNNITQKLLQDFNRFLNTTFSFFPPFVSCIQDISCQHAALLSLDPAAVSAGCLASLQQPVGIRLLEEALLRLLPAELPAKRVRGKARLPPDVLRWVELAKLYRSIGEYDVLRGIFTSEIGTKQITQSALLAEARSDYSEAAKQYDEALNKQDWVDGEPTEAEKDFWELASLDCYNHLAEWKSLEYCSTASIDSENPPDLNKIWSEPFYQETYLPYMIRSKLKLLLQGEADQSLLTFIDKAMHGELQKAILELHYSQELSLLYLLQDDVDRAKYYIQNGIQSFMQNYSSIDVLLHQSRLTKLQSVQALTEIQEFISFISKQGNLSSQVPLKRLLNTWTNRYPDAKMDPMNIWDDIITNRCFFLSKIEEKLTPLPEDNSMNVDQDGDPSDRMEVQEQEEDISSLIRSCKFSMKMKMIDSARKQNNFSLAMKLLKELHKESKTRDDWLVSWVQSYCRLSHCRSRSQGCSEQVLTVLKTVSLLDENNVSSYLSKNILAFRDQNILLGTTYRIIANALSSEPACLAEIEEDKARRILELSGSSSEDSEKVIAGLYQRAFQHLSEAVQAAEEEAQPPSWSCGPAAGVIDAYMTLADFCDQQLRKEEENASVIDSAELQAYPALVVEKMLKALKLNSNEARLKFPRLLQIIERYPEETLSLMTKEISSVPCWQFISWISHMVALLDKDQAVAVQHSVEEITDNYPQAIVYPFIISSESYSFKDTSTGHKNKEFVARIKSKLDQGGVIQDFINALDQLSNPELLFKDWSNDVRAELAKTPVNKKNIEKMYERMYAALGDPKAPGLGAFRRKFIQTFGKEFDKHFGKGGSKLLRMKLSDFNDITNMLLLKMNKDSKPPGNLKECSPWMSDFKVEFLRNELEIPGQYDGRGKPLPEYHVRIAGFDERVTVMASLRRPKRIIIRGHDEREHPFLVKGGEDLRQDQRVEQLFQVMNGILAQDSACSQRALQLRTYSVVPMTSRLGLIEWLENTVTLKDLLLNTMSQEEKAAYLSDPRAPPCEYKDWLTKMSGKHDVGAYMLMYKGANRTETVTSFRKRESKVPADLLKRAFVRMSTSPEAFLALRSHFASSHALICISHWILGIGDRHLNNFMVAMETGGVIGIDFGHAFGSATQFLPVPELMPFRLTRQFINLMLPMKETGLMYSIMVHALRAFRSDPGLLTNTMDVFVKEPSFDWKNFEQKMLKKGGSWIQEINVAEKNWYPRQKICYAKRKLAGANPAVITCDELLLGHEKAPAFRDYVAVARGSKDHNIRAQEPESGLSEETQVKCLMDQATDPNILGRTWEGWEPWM
Description: Artemis activity assay was developed using full length Artemis with DNA-PKcs to generate a fluorescent signal from the cleavage of the 5′ 6-FAM modified end of hairpin DNA with a black-hole quencher (3-BHQ) on the 3’ end. The assay buffer used was 25 mM MOPS, pH 7.5, 10 mM MgCl2, 10 mM KCl, 10 μM ATP, 1 mM DTT, 0.05% (w/v) CHAPS with 5 nM FL-Artemis, 5 nM DNA-PKcs, and 200 nM DNA FAM hairpin substrate. The fluorescence signal was monitored kinetically on a Perkin Elmer Envision microplate reader with FITC filters (λ ex = 485 nm, λ em = 520 nm) with 1-min reads for 40 min.
We determined the specificity of the four Artemis inhibiting compounds using a biochemical Artemis activity assay which generates a fluorescent signal from the cleavage of the 5′ 6-FAM modified end of hairpin DNA with a black-hole quencher (3-BHQ) on the 3’ end.
Steps 1, 2, and 3 show the fluorescence assay for cutting of the DNA hairpin substrate by Artems:DNA-Kcs. Artemis activity assay was optimized for development of a fluorescent signal from the cleavage of the 6-FAM modified end of hairpin DNA (to release it from proximity to the BHQ quenching) and monitored kinetically on a Perkin Elmer Envision microplate reader with FITC filters (excitation wavelength = 485 nm, emission wavelength = 520 nm). […]

Row | IC50 ([5]; 5 nM FL-Artemis, 5 nM DNA-PKcs, 200 nM DNA FAM hairpin substrate, 10 μM ATP, 10-point concentration response) [nM] | %Inh at Max ([5]; percent inhibition at maximal tested concentration) [%] | Compound | viability (PE Annexin V-/DAPI-) compared to DMSO controls [1] | proliferation (normalized green fluorescence intensity) vs DMSO ([2]; B-ALL cell lines, 5 μM and 10 μM) | proliferation of the three B-ALL lines (Discussion summary) ([2]; three B-ALL lines, 827171 at 1, 5, and 10 µM) | proliferation (normalized green fluorescence intensity) vs DMSO ([3]; 3301015, 5 μM and 10 µM) | proliferation (normalized green fluorescence intensity) vs DMSO [3]; 5680001 | proliferation (normalized green fluorescence intensity) vs DMSO ([3]; 5680001, 1 or 5 μM) | viability (PE Annexin V-/DAPI-) [4]
1 |  |  | Cc1cc2ncnn2cc1Nc1ncc2c(n1)n(C1CCOCC1)c(=O)n2C [AZD7648] | decrease in viability | inhibited the proliferation | little inhibition | suppressed proliferation | no significant decreases in proliferation | minor increase in proliferation | decrease viability of one or both B-cell lines
2 | 3 | 90.2 | COc1ccc([C@@H](O)c2cc(-c3ncnc4cc(N5CCOCC5)ccc34)c(F)cc2Cl)nn1 [M3814] |  |  |  |  |  |  | 
